From US20100137136A1, “HERBICIDE/SAFENER COMBINATION” (BAYER CROPSCIENCE AG, priority 2008, published 2010)

Experiments:
Format in all cases: in vivo
Corn (Aventura) [1] = experiment: Post-emergence herbicidal effect and safener effect, corn; conditions: for % Reduction: reduction of effect by safener
Description: (§1) Seeds or rhizome pieces of mono- and dicotyledonous harmful plants and of crop plants are planted in peat pots in sandy loam, covered with earth and grown in a greenhouse under good growth conditions. Alternatively to this, harmful plants occurring in the paddy rice cultivation are cultivated in pots in which water stands up to 2 cm above the soil surface. 10 to 20 days after sowing, the test plants are treated in the one to three-leaf stage. The herbicide/safener active ingredient combinations according to the invention, formulated as water-soluble powders or suspensions, and, in parallel experiments, the correspondingly formulated individual active ingredients are sprayed onto the green plant parts in various dosages using an application rate of 300 l of water/ha (converted) and, after the test plants have remained in the greenhouse under optimum growth conditions for 2-3 weeks, the effect of the preparations is scored visually in comparison with untreated controls. In the case of rice or in the case of harmful plants which occur in the rice cultivation, the active ingredients are also placed directly into the irrigation water (application analogous to the so-called granules application) or sprayed onto plants and into the irrigation water.

Wheat (Triso) [2] = experiment: Pre-emergence herbicidal effect and safener effect, wheat; conditions: for % Reduction: reduction of effect by safener
Description: (§2) Seeds or rhizome pieces of mono- and dicotyledonous weed plants and crop plants were planted in peat pots in sandy loam and covered with earth. The herbicide/safener active ingredient combinations according to the invention, formulated as water-soluble powders or suspensions, and, in parallel experiments, the correspondingly formulated individual active ingredients were then applied to the surface of the covering earth at an application rate of 600 to 800 l of water/ha (converted) in a variety of dosages.

Barley (Adonis) = experiment: Post-emergence herbicidal effect and safener effect, barley; conditions: herbicide 20 g a.i./ha, no safener, scored visually vs untreated controls
Description: as §1

Wheat (Triso) [3] = experiment: Post-emergence herbicidal effect and safener effect, wheat; conditions: for % effect (with safener) / % Reduction: herbicide I-2 20 g a.i./ha + safener 50 g a.i./ha; for % Reduction: reduction of effect by safener
Description: as §1

Rice (Ballila) = experiment: Post-emergence herbicidal effect and safener effect, rice; conditions: for % effect (with safener) / % Reduction: herbicide I-2 80 g a.i./ha + safener 200 g a.i./ha; for % Reduction: reduction of effect by safener
Description: as §1

Corn (Aventura) [4] = experiment: Pre-emergence herbicidal effect and safener effect, corn; conditions: for % effect (with safener) / % Reduction: herbicide I-2 80 g a.i./ha + safener 200 g a.i./ha; for % Reduction: reduction of effect by safener
Description: as §2

[5] = herbicide I-2 20 g a.i./ha + safener 50 g a.i./ha
[6] = herbicide I-2 20 g a.i./ha alone
[7] = herbicide I-2 80 g a.i./ha alone
[8] = herbicide I-2 80 g a.i./ha + safener 200 g a.i./ha

CC1(C)OC(c2ccco2)CN1C(=O)C(Cl)Cl (racemic) [Compound S3-10, (RS)-3-dichloroacetyl-5-(2-furyl)-2,2-dimethyloxazolidine]
% effect (with safener) (Corn (Aventura) [1]; [5]): 20%
% Reduction (Corn (Aventura) [1]; [5]): 50%
% effect (with safener) (Wheat (Triso) [2]; [5]): 10%
% Reduction (Wheat (Triso) [2]; [5]): 67%

COC(=O)c1nc(C2CC2)cc(N)c1Cl [Compound I-2, methyl 4-amino-3-chloro-6-cyclopropyl-2-pyridinecarboxylate]
% effect (without safener) (Barley (Adonis)): 20%
% effect (without safener) (Wheat (Triso) [3]; [6]): 20%
% effect (without safener) (Rice (Ballila); [7]): 30%
% effect (without safener) (Corn (Aventura) [1]; [6]): 40%
% effect (without safener) (Corn (Aventura) [1]; [7]): 40%
% effect (without safener) (Wheat (Triso) [2]; [6]): 30%
% effect (without safener) (Wheat (Triso) [2]; [7]): 30%
% effect (without safener) (Corn (Aventura) [4]; [7]): 35%

CCCCCC(C)OC(=O)COc1ccc(Cl)c2cccnc12 (stereo not drawn) [Compound S2-1, 1-methylhexyl(5-chloro-8-quinolinoxy)acetate]
% effect (with safener) (Rice (Ballila)): 10%
% Reduction (Rice (Ballila)): 67%
% effect (with safener) (Corn (Aventura) [1]; [5]): 20%
% Reduction (Corn (Aventura) [1]; [5]): 50%
% effect (with safener) (Wheat (Triso) [2]; [8]): 20%
% Reduction (Wheat (Triso) [2]; [8]): 33%

CC1COc2ccccc2N1C(=O)C(Cl)Cl (stereo not drawn) [Compound S3-4, 4-dichloroacetyl-3,4-dihydro-3-methyl-2H-1,4-benzoxazine]
% effect (with safener) (Corn (Aventura) [1]; [8]): 10%
% Reduction (Corn (Aventura) [1]; [8]): 75%

FC(F)(F)C(=NOCC1OCCO1)c1ccc(Cl)cc1 [Compound S11-2, 1-(4-chlorophenyl)-2,2,2-trifluoro-1-ethanone O-(1,3-dioxolan-2-ylmethyl)oxim]
% effect (with safener) (Wheat (Triso) [2]; [5]): 20%
% Reduction (Wheat (Triso) [2]; [5]): 33%

O=C(O)c1nc(C(Cl)(Cl)Cl)n(-c2ccc(Cl)cc2Cl)n1 [Fenchlorazole]
% effect (with safener) (Wheat (Triso) [2]; [5]): 10%
% Reduction (Wheat (Triso) [2]; [5]): 67%

CCOC(=O)C1=NOC(c2ccccc2)(c2ccccc2)C1 [Isoxadifen-ethyl, ethyl 5,5-diphenyl-2-isoxazoline-carboxylate]
% effect (with safener) (Wheat (Triso) [3]): 0%
% Reduction (Wheat (Triso) [3]): 100%
% effect (with safener) (Rice (Ballila)): 20%
% Reduction (Rice (Ballila)): 33%
% effect (with safener) (Corn (Aventura) [1]; [8]): 20%
% Reduction (Corn (Aventura) [1]; [8]): 50%
% effect (with safener) (Wheat (Triso) [2]; [5]): 10%
% Reduction (Wheat (Triso) [2]; [5]): 67%
% effect (with safener) (Corn (Aventura) [4]): 25%
% Reduction (Corn (Aventura) [4]): 29%

CCOC(=O)C1=NN(c2ccc(Cl)cc2Cl)C(C)(C(=O)OCC)C1 (stereo not drawn) [Mefenpyr-diethyl, ethyl 1-(2,4-dichlorophenyl)-5-(ethoxycarbonyl)-5-methyl-2-pyrazoline-3-carboxylate]
% effect (with safener) (Wheat (Triso) [3]): 0%
% Reduction (Wheat (Triso) [3]): 100%
% effect (with safener) (Corn (Aventura) [1]; [5]): 20%
% Reduction (Corn (Aventura) [1]; [5]): 50%
% effect (with safener) (Wheat (Triso) [2]; [5]): 20%
% Reduction (Wheat (Triso) [2]; [5]): 33%
% effect (with safener) (Corn (Aventura) [4]): 20%
% Reduction (Corn (Aventura) [4]): 43%
